In patent US8722633B2, “Glycoside derivatives and uses thereof” (Novartis AG, priority 2011, dated 2014):

Assays:
[1] = target: T1, human sodium glucose co-transporter 2 (Homo sapiens, UniProt P31639); assay: SGLT-2 assay: sodium-dependent 14C-AMG uptake in CHO-hSGLT2 or HEK-hSGLT2 cells; assay type: cell-based; details: n = 1-4, read-out: SGLT2 IC50 nM (n = 1-4)
T1 construct: expressed in transfected cells; host or cells: CHO-K1 (ATCC CCL-61) or HEK293 (ATCC CRL-1573), stably transfected with pZeoSV carrying the hSGLT2 cDNA
T1 sequence (P31639 1-672): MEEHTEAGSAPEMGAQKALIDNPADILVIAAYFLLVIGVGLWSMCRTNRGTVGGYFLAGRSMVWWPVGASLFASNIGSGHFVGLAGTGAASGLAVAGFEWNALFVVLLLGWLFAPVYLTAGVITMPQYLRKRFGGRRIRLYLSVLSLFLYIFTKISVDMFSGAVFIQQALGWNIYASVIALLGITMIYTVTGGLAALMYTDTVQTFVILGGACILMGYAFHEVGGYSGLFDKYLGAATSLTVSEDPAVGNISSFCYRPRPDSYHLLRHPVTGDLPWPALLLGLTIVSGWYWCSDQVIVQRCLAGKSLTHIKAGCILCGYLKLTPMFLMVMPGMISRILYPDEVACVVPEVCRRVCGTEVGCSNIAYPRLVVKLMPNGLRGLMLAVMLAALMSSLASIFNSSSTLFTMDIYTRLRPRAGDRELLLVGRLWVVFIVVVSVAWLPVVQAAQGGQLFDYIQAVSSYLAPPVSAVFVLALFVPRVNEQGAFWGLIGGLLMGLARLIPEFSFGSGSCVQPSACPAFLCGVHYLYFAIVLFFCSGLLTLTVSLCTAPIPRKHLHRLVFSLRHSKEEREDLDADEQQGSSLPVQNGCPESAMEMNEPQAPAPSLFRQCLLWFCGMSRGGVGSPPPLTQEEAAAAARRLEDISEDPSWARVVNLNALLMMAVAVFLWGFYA
Procedure: These cell lines transport ^14C-labelled alpha-methyl-glucopyranoside (^14C-AMG, Amersham) into the interior of the cell in sodium-dependent manner.
(§1) The SGLT-2 assay is carried out as follows: CHO-hSGLT2 cells are cultivated in Ham's F12 Medium (BioWhittaker) with 10% foetal calf serum and 250 μg/mL zeocin (Invitrogen), and HEK293-hSGLT2 cells are cultivated in DMEM medium with 10% foetal calf serum and 250 μg/mL zeocin (Invitrogen). The cells are detached from the culture flasks by washing twice with PBS and subsequently treating with trypsin/EDTA. After the addition of cell culture medium the cells are centrifuged, resuspended in culture medium and counted in a Casy cell counter. Then 40,000 cells per well are seeded into a white, 96-well plate coated with poly-D-lysine and incubated overnight at 37° C., 5% CO2. The cells are washed twice with 250 μl of assay buffer (Hanks Balanced Salt Solution, 137 mM NaCl, 5.4 mM KCl, 2.8 mM CaCl2, 1.2 mM MgSO4 and 10 mM HEPES (pH 7.4), 50 μg/mL of gentamycin). 250 μl of assay buffer and 5 μl of test compound are then added to each well and the plate is incubated for a further 15 minutes in the incubator. 5 μl of 10% DMSO are used as the negative control. The reaction is started by adding 5 μl of 14 C— AMG (0.05 μCi) to each well. After 2 hours' incubation at 37° C., 5% CO2, the cells are washed again with 250 μl of PBS […] and then lysed by the addition of 25 μl of 0.1 N NaOH (5 min. at 37° C.). 200 μl of MicroScint20 (Packard) are added to each well and incubation is continued for a further 20 min at 37° C. After this incubation the radioactivity of the ^14C-AMG absorbed is measured in a Topcount (Packard) using a ^14C scintillation program.

human SGLT1 = target: T2, human SGLT1 (Homo sapiens, UniProt P13866); assay: SGLT1 assay: analogous 14C-AMG uptake test with hSGLT1 cDNA expressed in CHO-K1 or HEK293 cells; assay type: cell-based; details: n = 1-4
T2 construct: the cDNA for hSGLTI (Genbank Ace. No. NM000343); expressed in transfected cells; host or cells: CHO-K1 or HEK293 cells expressing the hSGLT1 cDNA
T2 sequence (P13866 1-664): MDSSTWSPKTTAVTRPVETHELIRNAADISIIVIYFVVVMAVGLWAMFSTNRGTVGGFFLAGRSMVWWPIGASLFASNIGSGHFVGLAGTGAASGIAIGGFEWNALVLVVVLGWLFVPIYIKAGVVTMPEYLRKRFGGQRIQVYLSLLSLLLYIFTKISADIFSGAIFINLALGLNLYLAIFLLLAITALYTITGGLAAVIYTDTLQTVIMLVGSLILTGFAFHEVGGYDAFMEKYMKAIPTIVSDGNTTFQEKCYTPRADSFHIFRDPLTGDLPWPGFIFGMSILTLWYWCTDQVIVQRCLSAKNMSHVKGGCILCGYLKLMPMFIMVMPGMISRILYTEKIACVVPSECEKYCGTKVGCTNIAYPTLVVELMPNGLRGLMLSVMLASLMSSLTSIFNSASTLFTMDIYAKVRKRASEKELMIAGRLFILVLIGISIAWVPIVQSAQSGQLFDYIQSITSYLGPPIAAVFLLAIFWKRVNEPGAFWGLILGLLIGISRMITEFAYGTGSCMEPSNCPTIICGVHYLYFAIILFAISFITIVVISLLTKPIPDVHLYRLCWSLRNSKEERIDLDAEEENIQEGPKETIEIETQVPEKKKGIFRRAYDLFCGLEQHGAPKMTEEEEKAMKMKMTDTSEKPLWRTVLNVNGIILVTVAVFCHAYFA
Procedure: as §1
To determine the selectivity with respect to human SGLT1 an analogous test is set up in which the cDNA for hSGLTI (Genbank Ace. No. NM000343) instead of hSGLT2 cDNA is expressed in CHO-K1 or HEK293 cells.

IC50 [1] [nM] | IC50 (human SGLT1) [nM] | SMILES
0.29 | 0.55 | CSC1O[C@@H](c2ccc(C3CC3)c(Cc3ccc4c(c3)OCCO4)c2)[C@H](O)[C@@H](O)[C@@H]1O (stereo partly drawn) [Example 1, (2S,3R,4R,5S)-2-[4-cyclopropyl-3-(2,3-dihydro-benzo[1,4]dioxin-6-ylmethyl)-phenyl]-6-methylsulfanyl-tetrahydro-pyran-3,4,5-triol]
0.36 | – | CCc1ccc([C@@H]2O[C@H](SC)[C@@H](O)[C@H](O)[C@H]2O)cc1Cc1ccc2c(c1)OCCO2 [Example 1-1, (2S,3R,4R,5S,6R)-2-[3-(2,3-Dihydro-benzo[1,4]dioxin-6-ylmethyl)-4-ethyl-phenyl]-6-methylsulfanyl-tetrahydropyran-3,4,5-triol]
9.2 | 97 | CS(=O)(=O)[C@H]1O[C@@H](c2ccc(C3CC3)c(Cc3ccc4c(c3)OCCO4)c2)[C@H](O)[C@@H](O)[C@@H]1O [Example 2, (2S,3R,4R,5S)-2-[4-Cyclopropyl-3-(2,3-dihydro-benzo[1,4]dioxin-6-ylmethyl)-phenyl]-6-methanesulfonyl-tetrahydro-pyran-3,4,5-triol]
1.45 | 195 | CCc1ccc([C@@H]2O[C@H](S(C)(=O)=O)[C@@H](O)[C@H](O)[C@H]2O)cc1Cc1ccc2c(c1)OCCO2 [Example 2-1, (2S,3R,4R,5S,6R)-2-[3-(2,3-Dihydro-benzo[1,4]dioxin-6-ylmethyl)-4-ethyl-phenyl]-6-methanesulfonyl-tetrahydropyran-3,4,5-triol]
